Test results: patent publication US12441743B2, “Spiro aromatic ring compound and use thereof” (Etern Biopharma (Shanghai) Co., Ltd., priority 2018, dated 2025)

Experiments:
[1] = Pharmacokinetics experiment, intragastric single dose; assay type: in vivo; conditions: mouse, plasma, male mice, oral administration dosage 5 mg/Kg; for half-life: read-out: Half-life T1/2 (converted); for Cmax: read-out: Maximum plasma concentration Cmax; for AUC: read-out: Plasma exposure AUC
Protocol: Pharmacokinetics of the compound of the disclosure was determined. The following method was used to determine the pharmacokinetic parameters of the compound of the disclosure. Healthy male adult mice were used in the study. Each group was intragastrically administered with a single dose of 5-100 mg/kg. Fasting lasted from 10 hours before administration to 4 hours after administration. Blood samples were collected at different time points after administration and the compound content in plasma was determined by LC-MS/MS. The relationship between plasma concentration and time was analyzed by professional software (winnonlin), and the pharmacokinetic parameters of the compounds were calculated. According to Table 3, the compounds of the disclosure have excellent pharmacokinetic properties.

SHP2 E76A protein = molecular target: T1, SHP2 E76A protein (Homo sapiens, UniProt Q06124, E76A); assay: SHP2 enzyme activity inhibition test (DiFMUP substrate, fluorescence); assay type: biochemical; conditions: 50 ng SHP2 E76A, 20 min with compound, then 10 uM DiFMUP 20 min at room temperature
T1 sequence (Q06124 1-593 E76A): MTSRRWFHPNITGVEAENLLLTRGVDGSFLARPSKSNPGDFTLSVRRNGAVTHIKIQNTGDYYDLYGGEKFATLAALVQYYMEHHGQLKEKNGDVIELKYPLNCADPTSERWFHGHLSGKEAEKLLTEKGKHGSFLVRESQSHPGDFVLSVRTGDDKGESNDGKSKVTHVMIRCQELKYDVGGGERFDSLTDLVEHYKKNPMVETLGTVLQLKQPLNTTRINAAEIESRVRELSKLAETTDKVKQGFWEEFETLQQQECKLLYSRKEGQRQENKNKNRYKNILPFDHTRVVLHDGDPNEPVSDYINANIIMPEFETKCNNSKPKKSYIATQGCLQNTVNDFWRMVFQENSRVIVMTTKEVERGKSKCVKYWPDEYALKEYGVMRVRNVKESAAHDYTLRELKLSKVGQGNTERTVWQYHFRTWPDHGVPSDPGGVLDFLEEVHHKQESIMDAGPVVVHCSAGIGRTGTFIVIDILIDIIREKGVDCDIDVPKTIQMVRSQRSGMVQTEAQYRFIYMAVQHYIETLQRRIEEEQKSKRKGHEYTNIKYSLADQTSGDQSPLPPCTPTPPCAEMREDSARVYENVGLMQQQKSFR

MV4-11 cells = assay: MV4-11 cell proliferation inhibition experiment (CellTiter-Glo); assay type: cell-based; conditions: Homo sapiens; MV4-11 cells, 72 h, CellTiter-Glo; read-out: Cell proliferation inhibition activity
Protocol: The number of living cells in the culture was determined by quantitative determination of intracellular ATP using CellTiter-Glo® Luminescent Cell Viability Assay kit.
In the first step, MV4-11 cells were inoculated into 96-well plates with a density of 2500 cells per well and a volume of 100 μL per well. The plates were placed in 37° C., 5% carbon dioxide incubator overnight.
In the second step, cells were treated with compounds. The compounds to be tested were diluted 3 times, and 8 concentration gradients were set up. Each well was added with a certain volume of DMSO or the compound to be tested, and each concentration was tested in 2 replicates, and the final concentration of DMSO was 0.5%. The plates were placed in 37° C., 5% carbon dioxide incubator for 72 h.
In the third step, cell viability of the control groups and the treatment groups was determined using CellTiter-Glo® Luminescent Cell Viability Assay kit (Promega, G7570). Each well was added with 50 uL CellTiter-Glo. The culture was mixed well, and incubated at room temperature for 10 min. Signals were read using EnSpire (Perkin Elmer). Inhibition percentages (%) were calculated by the following formula:
Inhibition percentage (%)=(1−signal value of compound treatment group/signal value of DMSO treatment group)*100.

SMILES	bioavailability [1] [%]	half-life [1] [h]	Cmax [1] [µM]	AUC [1] [µM·h]	IC50 (SHP2 E76A protein) [nM]	IC50 (MV4-11 cells) [nM]
Nc1nccc(Sc2cnc(N3CCC4(CC3)Cc3nccnc3[C@H]4N)n3ccnc23)c1Cl [Compound 18, (S)-1′-(8-((2-amino-3-chloropyridin-4-yl)thio)imidazo[1,2-c]pyrimidin-5-yl)-5,7-dihydrospiro[cyclopenta[b]pyrazine-6,4′-piperidine]-5-amine]	72	3.5	6.5	40	7	42
Nc1nccc(Sc2cnc(N3CCC4(CC3)Cc3ncccc3[C@H]4N)n3ccnc23)c1Cl [Compound 6, (S)-1′-(8-((2-amino-3-chloropyridin-4-yl)thio)imidazo[1,2-c]pyrimidin-5-yl)-5,7-dihydrospiro[cyclopenta[b]pyridine-6,4′-piperidine]-5-amine]	37	3.1	6	35	6	4
